Measured values: patent publication US8034797B2, “Triazene compounds for the treatment of cancer” (Trin Therapeutics GmbH, priority 2007, dated 2011)
Like-named read-outs stand apart in the source and are kept apart here.

Key:
PRXF DU145 = assay: Xenograft tumour panel, PRXF DU145 (prostate); format: in vivo, nude mice; details: 385-590 mg/kg ip twice weekly, 28 d
Protocol: (§1) Breast tumours (MAXF 401) were implanted subcutaneously into the rear members of the mice aged 10 weeks. The increase in the volume of the individual tumours was measured using microcallipers, and the size of the tumour was calculated according to the formula a*b^2/2 (where a is the largest diameter of the tumour and b is the vertical axis). When the tumour volume had increased to 80-120 mm^3, the animals were allocated at random into test groups of in each case 6 animals.
(§2) To this end, xenografts of human tumours derived from prostate, uterine, lung, pancreatic, bladder and “head and neck” cancers were implanted in nude mice. The implantation and the determination of tumour volumes were carried out as described hereinbefore. Groups of 5 to 8 animals were used. The test substance was administered by ip injection twice weekly in the mentioned doses in the form of the sodium salt as an aqueous solution.
(§3) The tumour xenografts used, the doses used, the duration of the therapy and a classification of observed anti-tumour actions are summarised in Table 2 below.

CXF 280 = CXF 280 colon carcinoma xenograft model; format: in vivo, nude mice
Protocol: as §1, §2, §3
Subcutaneous implantation of the tumour and the determination of tumour volumes were carried out as described hereinbefore. The test substance was administered by ip injection twice weekly in the mentioned doses in the form of the sodium salt as an aqueous solution, over a period of 4 weeks. Groups of in each case 8 animals were used.

LXFL 529 = assay: Xenograft tumour panel, LXFL 529 (lung); format: in vivo, nude mice; details: 450-540 mg/kg ip twice weekly, 10 d (control ended early)
Protocol: as §1, §2, §3

MEXF 276 = assay: Xenograft tumour panel, MEXF 276 (melanoma); format: in vivo, nude mice; details: 450-540 mg/kg ip twice weekly, 21 d (control ended early)
PRXF 22RV1 = assay: Xenograft tumour panel, PRXF 22RV1 (prostate); format: in vivo, nude mice; details: 450-540 mg/kg ip twice weekly, 28 d
Protocol: as §1, §2, §3

MAXF 401 = MAXF 401 breast tumour xenograft in nude mice; format: in vivo
Protocol: All the tests were carried out using female nude mice under standard conditions for the keeping of animals with controlled illumination and temperature. The animals were given water and food as desired.
as §1, with “The” for “Breast tumours (MAXF 401) were implanted subcutaneously into the rear members of the mice aged 10 weeks. The”
The test compounds (in the form of sodium salts) were dissolved in a saline solution, and 5% Klucel (hydroxypropylcellulose) was added in order to dissolve all the test compounds in the same carrier. […] A volume of 10 ml/kg body weight was injected. Animals that received only the carrier served as control. The test compounds were treated according to the scheme of twice weekly administration over a period of […]. The tumour volume and the body weight were checked twice weekly, and the relative tumour volumes were calculated as the ratio of tumour size to body weight.
On the basis of the relative tumour volumes of the animals treated with the test compounds compared with the tumour volumes of the controls treated only with the carrier, the T/C values were calculated and were used as the index of anti-tumour activity.
Subcutaneous implantation of the tumour and the determination of the tumour volume were carried out as described hereinbefore. The above-mentioned salts of the test substance were administered by ip injection twice weekly in the mentioned doses in the form of an aqueous solution, over a period of 4 weeks. […]
Subcutaneous implantation of the tumour and the determination of tumour volumes were carried out as described hereinbefore. The test substance was administered by ip injection twice weekly in the mentioned doses in the form of the sodium salt as an aqueous solution, over a period of 4 weeks.

BXF 1218 = assay: Xenograft tumour panel, BXF 1218 (bladder); format: in vivo, nude mice; details: 450-540 mg/kg ip twice weekly, 7 d (control ended early); n.s.
Protocol: as §1, §2, §3

Tumour-carrying mice = assay: Nephrological tolerability (kidney post-mortem and histology); format: in vivo
Protocol: A control group was treated only with the carrier according to a twice weekly treatment scheme.
When the 28-day treatment period had ended, a post-mortem was carried out on the mice. […] The kidneys of all the animals in the test groups were removed by operation, fixed in formalin according to standard methods, embedded in paraffin and processed for HE staining.

HNXF 536 = assay: Xenograft tumour panel, HNXF 536 (head & neck); format: in vivo, nude mice; details: 450-540 mg/kg ip twice weekly, 28 d
Protocol: as §1, §2, §3

UXF 1138 = assay: Xenograft tumour panel, UXF 1138 (uterus); format: in vivo, nude mice; details: 450-540 mg/kg ip twice weekly, 21 d (control ended early)
Protocol: as §1, §2, §3

MEXF 462 = MEXF 462 melanoma xenograft model; format: in vivo, nude mice; details: for tumour volume in % of the tumour volume at the beginning of the test, Mean: 300 mg/kg ip twice weekly
Protocol: as §1, with “animals. […]” for “animals.”
The anti-tumour activity of the compounds was determined in the MEXF 462 xenograft tumour model in the nude mouse. Subcutaneous implantation of the tumour and the determination of tumour volumes were carried out as described hereinbefore. Groups of in each case 8 animals were used.
Equimolar amounts of the compound of Example 8 were administered ip twice weekly in the form of a 5% DMSO solution over the mentioned period.
The progression over time of the anti-tumour action, expressed in % of the tumour volume at the beginning of the test, over the period of therapy is shown in Table 3.

Solubility in water = format: physicochemical; details: water, 25 °C, water
PAXF 1657 = assay: Xenograft tumour panel, PAXF 1657 (pancreas); format: in vivo, nude mice; details: 450-540 mg/kg ip twice weekly, 21 d (control ended early); n.s.
Protocol: as §1, §2, §3

[1] = dose range used (450-540 mg/kg)
[2] = extrapolated, ip twice weekly over 4 weeks
[3] = kidney histology after 28-day twice weekly ip treatment, equimolar to 450 mg of stock composition, affected/animals

For `CN(C)/N=N/c1ccc(C(=O)c2ccc(OCCC(=O)NCC(=O)[O-])cc2)cc1.[Na+]` [Example 2a], the “Max. effect (Inhibition)” value (PRXF DU145) was “Inhibition >50% **”, the anti-tumour action (CXF 280; 450, 500 or 540 mg/kg ip twice weekly over 4 weeks, all doses) was “pronounced anti-tumour action” and the Max. effect (CXF 280; 450-540 mg/kg ip twice weekly, 28 d, ***) was “Remission ***”. The ED50 (CXF 280; Mus musculus, 672 h, extrapolated, ip twice weekly over 4 weeks) was 390 mg/kg, the tolerability (CXF 280; [1]) was “well tolerated” and the “weight loss in the animals” value (CXF 280; [1]) was “not associated with a significant weight loss”. The ED20 (CXF 280; [2]) was 330 mg/kg, the ED90 (CXF 280; [2]) was 490 mg/kg and the “Max. effect (Inhibition)” value (LXFL 529) was “Inhibition <50% *”. For the same compound, the “Max. effect (Inhibition)” value (MEXF 276) was “Inhibition >50% ***”, the “Max. effect (Inhibition)” value (PRXF 22RV1) was “Inhibition <50% **” and the Max. effect (MAXF 401; 300-540 mg/kg ip twice weekly, 28 d, ***) was “Remission ***”. For the same compound, the ED50 (MAXF 401; Mus musculus, MAXF401, 672 h, ip twice weekly over 4 weeks, read-out: ED50 of the anti-tumour action) was 450 mg/kg, the “effect at the highest dose” value (MAXF 401; highest dose, ip twice weekly over 4 weeks) was “remission of the tumours” and the “ED90 of the anti-tumour action” value (MAXF 401; ip twice weekly over 4 weeks) was 500 mg/kg. For the same compound, the “threshold dose of the anti-tumour action” value (MAXF 401; ip twice weekly over 4 weeks) was 300 mg/kg, the “Max. effect (Inhibition)” value (BXF 1218) was “Inhibition <50% n.s” and the “macroscopic findings of the kidneys at post-mortem” value (Tumour-carrying mice; after 28-day treatment period) was “without pathological findings”. For the same compound, the Acute single-cell necrosis (Tumour-carrying mice; [3]) was 0/9, the Focal tubular necrosis (Tumour-carrying mice; [3]) was 0/9 and the “Max. effect (Inhibition)” value (HNXF 536) was “Inhibition <50% **”. For the same compound, the “Max. effect (Inhibition)” value (UXF 1138) was “Inhibition >50% **”, the Max. effect (MEXF 462; 100-540 mg/kg ip twice weekly, 28 d, ***) was “Remission ***” and the “tumour volume in % of the tumour volume at the beginning of the test, Mean” value (shortened to “tumour volume in % of the tumour volume”) (MEXF 462; day 0) was 100%. The “tumour volume in % of the tumour volume” value (MEXF 462; day 3) was 316%, the “tumour volume in % of the tumour volume” value (MEXF 462; day 7) was 240% and the “tumour volume in % of the tumour volume” value (MEXF 462; day 11) was 187%. The “tumour volume in % of the tumour volume” value (MEXF 462; day 14) was 166%, the “tumour volume in % of the tumour volume” value (MEXF 462; day 18) was 83% and the “tumour volume in % of the tumour volume” value (MEXF 462; day 21) was 67%. For the same compound, the “tumour volume in % of the tumour volume” value (MEXF 462; day 25) was 40%, the “tumour volume in % of the tumour volume” value (MEXF 462; day 28) was 30% and the outcome of treatment (MEXF 462; equimolar doses ip twice weekly over 4 weeks) was “partial remission”. For the same compound, the solubility (Solubility in water; 25° C., read-out: solubility in water at 25° C.) was 500 mg/mL, the solubility (Solubility in water; room temperature (25° C.), read-out: water solubility at room temperature (25° C.)) was 500 mg/mL and the Max. effect (PAXF 1657) was “No anti-tumour”.
